{
  "source": "the METLIN SMRT retention time set (Domingo-Almenara et al. 2019)",
  "data": [
    {"test": "gradient 5% acetonitrile 3 min, to 50% in 2 min, to 85% in 15 min, held 3 min, 100 µL/min", "details": "column: Zorbax Extend-C18 2.1 x 50 mm; eluents: water / acetonitrile, 0.1% formic acid", "method_in_brief": "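A Zorbax Extend-C18 column (2.1 × 50 mm, 1.8 μm) run at 100 μL/min with water and acetonitrile, both containing 0.1% formic acid, separated mixtures of ~100 pure standards. The HPLC was coupled to a quadrupole time-of-flight mass spectrometer operated in positive and negative ionization mode, with dead and dwell volumes of 40 μL and 900 μL. Each retention time was taken from a computationally picked adduct peak that was then manually inspected.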", "units": {"RP-LC retention time": "s"}, "values": [
      {"smiles": "Cc1ccc(S(=O)(=O)N2CCCC2c2nc(-c3ccc(F)cc3)no2)cc1Cl", "note": "(stereo not drawn)", "RP-LC retention time": 1230},
      {"smiles": "CC(=O)Nc1ccc2nc(NC(=O)CCOc3ccccc3)sc2c1", "RP-LC retention time": 708},
      {"smiles": "O=C(NC1CCCCCC1)C1CCN(c2nccnc2Oc2ccccc2)CC1", "RP-LC retention time": 1020},
      {"smiles": "Cc1ccc(S(=O)(=O)N2CCCCC2)cc1-c1nnc(-c2ccc(F)cc2)o1", "RP-LC retention time": 1110},
      {"smiles": "Cc1nnc(N2CCCC(C(=O)NCc3cccc(F)c3)C2)c2nn(-c3ccccc3)c(C)c12", "note": "(stereo not drawn)", "RP-LC retention time": 716},
      {"smiles": "Cc1ccc(NC(=O)Cn2nc(N3CCCC(C)C3)c3ccccc3c2=O)cc1C", "note": "(stereo not drawn)", "RP-LC retention time": 1240},
      {"smiles": "CCOC(=O)c1c(C)oc2nc(C)nc(NCCCN(C)c3ccccc3)c12", "RP-LC retention time": 701},
      {"smiles": "Cc1ccccc1-c1nc2cnccn2c1NCCC(=O)NC1CC1", "RP-LC retention time": 568},
      {"smiles": "CCCNC(=O)C1CCN(c2ccc(SCC(=O)Nc3ccc(C)c(C)c3)nn2)CC1", "RP-LC retention time": 685},
      {"smiles": "CC(=O)NCc1csc(C2CCCN(C(=O)c3cc(F)cc(F)c3)C2)n1", "note": "(stereo not drawn)", "RP-LC retention time": 684},
      {"smiles": "CCC(=O)NC(C)c1nc(-c2ccc(C)cc2)no1", "note": "(stereo not drawn)", "RP-LC retention time": 777},
      {"smiles": "CCCn1c(CCNC(=O)c2ccc(Cl)cc2)nc2cccnc21", "RP-LC retention time": 722},
      {"smiles": "Cc1ccc(CNC(=O)C2(C)CN(S(C)(=O)=O)CC(=O)N2c2cc(C)ccc2C)cc1", "note": "(stereo not drawn)", "RP-LC retention time": 898},
      {"smiles": "CCCCNC(=O)c1ccc2c(c1)NC(=O)C(CC(C)C)N2", "note": "(stereo not drawn)", "RP-LC retention time": 754},
      {"smiles": "Cc1cccc(NC(=O)N2CCc3nc(-c4ccccc4)ncc3C2)c1C", "RP-LC retention time": 901},
      {"smiles": "COc1ccc(Br)c2c1-c1nc(NC(=O)c3ccccc3)sc1C2", "RP-LC retention time": 1130},
      {"smiles": "NC(=O)C1CCN(c2ncnc3c2cnn3-c2ccc(Cl)cc2)CC1", "RP-LC retention time": 732},
      {"smiles": "Clc1ccc(-c2nc3ccccn3c2Nc2ccc3c(c2)OCCO3)cc1", "RP-LC retention time": 708},
      {"smiles": "CS(=O)(=O)N1CCC(CNC(=O)c2cc(-c3ccccc3)on2)CC1", "RP-LC retention time": 750},
      {"smiles": "CCCN(CCC)c1ncc(NC(=O)c2ccc(Br)cc2)cc1C(=O)O", "RP-LC retention time": 766},
      {"smiles": "O=C(Nc1ccc(Cl)cc1F)N1CCCN(C2CCN(CC3CC3)C2=O)CC1", "note": "(stereo not drawn)", "RP-LC retention time": 575},
      {"smiles": "CN(Cc1ccccc1)c1ncc(C(=O)Nc2ccccc2)c(N)n1", "RP-LC retention time": 731},
      {"smiles": "CCOC(=O)c1nc(N2CCN(c3cccc(OC)c3)CC2)c2c(C)noc2n1", "RP-LC retention time": 960},
      {"smiles": "N#Cc1ccc(C(=O)N2CCN(c3cc(-c4ccc(Cl)cc4)[nH]n3)CC2)cc1", "RP-LC retention time": 826},
      {"smiles": "Cc1nc(-c2cccnc2)nc2c1CCC(=O)N2CC1CCCCC1", "RP-LC retention time": 963},
      {"smiles": "CCn1nc(C)n2cc(S(=O)(=O)NCc3ccc(C)o3)cc2c1=O", "RP-LC retention time": 815},
      {"smiles": "CCN(CC(=O)N1CCC(C(N)=O)CC1)S(=O)(=O)c1ccc(F)cc1", "RP-LC retention time": 635},
      {"smiles": "CCOC(=O)C1=C(CNc2ccc(F)cc2)NC(=O)NC1c1ccccc1", "note": "(stereo not drawn)", "RP-LC retention time": 868},
      {"smiles": "N=C(N)n1c(N)nc2ccccc2c1=O", "RP-LC retention time": 613},
      {"smiles": "COc1ccc(-c2nnc(COc3cccc(NC(=O)C(NC(=O)c4ccco4)C(C)C)c3)o2)cc1", "note": "(stereo not drawn)", "RP-LC retention time": 1010},
      {"smiles": "COCc1nc2cccnc2n1C1CCN(C(=O)Nc2ccccc2)CC1", "RP-LC retention time": 680},
      {"smiles": "Fc1ccccc1-c1noc(-c2nc(-c3ccncc3)no2)n1", "RP-LC retention time": 951},
      {"smiles": "c1cc2c(cc1-c1nnc(C3CCCC3)o1)OCO2", "RP-LC retention time": 944},
      {"smiles": "CC(C)c1noc(COC2CCN(C(=O)Cn3ccnc3)CC2)n1", "RP-LC retention time": 592},
      {"smiles": "CC(C(=O)NCCCN1CCOCC1)n1c(=O)c(C(F)(F)F)nc2ccccc21", "note": "(stereo not drawn)", "RP-LC retention time": 644},
      {"smiles": "CCN1C(=O)c2cc(S(=O)(=O)Nc3ccc(F)c(Cl)c3)ccc2Oc2cccnc21", "RP-LC retention time": 1090},
      {"smiles": "COc1cc2c(cc1CNC(=O)c1ccc(Br)cc1)OCCCO2", "RP-LC retention time": 939},
      {"smiles": "O=C(NC1CCCCCC1)c1cccc(Cn2cncn2)c1", "RP-LC retention time": 729},
      {"smiles": "O=C(Cn1c2ccccc2n2c(=O)cc(-c3ccc(F)cc3)nc12)NCc1ccco1", "RP-LC retention time": 912},
      {"smiles": "COc1ccc(CC(=O)NC2CCN(c3nnc4ccccn34)CC2)cc1", "RP-LC retention time": 626},
      {"smiles": "Cc1ccc(N2CC(c3nc(-c4ccc5c(c4)nc(C)c(=O)n5C)no3)CC2=O)cc1C", "note": "(stereo not drawn)", "RP-LC retention time": 876},
      {"smiles": "CCOC(=O)CC1(NC(=O)N2CCN(c3nc4ccccc4n3C)CC2)CCCCC1", "RP-LC retention time": 593},
      {"smiles": "O=C(CSCc1ccccc1)N1CCC(c2nnc(-c3ccco3)s2)CC1", "RP-LC retention time": 837},
      {"smiles": "Cc1ccc(NC(=O)CCC(=O)O)c(C)c1", "RP-LC retention time": 627},
      {"smiles": "CCOC(=O)c1c(S(=O)(=O)N2CCC(C(=O)Nc3ccc(Cl)cc3)CC2)c(C)n(CC)c1C", "RP-LC retention time": 957},
      {"smiles": "CC(=O)N1CCc2sc(S(=O)(=O)N3CCN(c4ccccc4F)CC3)cc2C1", "RP-LC retention time": 905},
      {"smiles": "CC(=O)N(C1CCOCC1)C1CCN(C(=O)Nc2ccccc2)CC1", "RP-LC retention time": 655},
      {"smiles": "Fc1ccc(-c2noc(-c3ccc(N4CCC5(CC4)OCCO5)nc3)n2)cc1", "RP-LC retention time": 1180},
      {"smiles": "Cn1c(=O)c(N2CCC(NC(=O)Nc3cccc(C(F)(F)F)c3)CC2)nc2ccccc21", "RP-LC retention time": 1010},
      {"smiles": "CCc1cc(C(=O)Nc2cc(F)ccc2C)nc2ccnn12", "RP-LC retention time": 1090},
      {"smiles": "Cc1nc(-c2cn(C(C)C)c3ncccc23)sc1C(=O)NCCN1CCOCC1", "RP-LC retention time": 630},
      {"smiles": "COc1ccc(-c2nnc(COc3cccc(NC(=O)c4ccsc4)c3)o2)cc1", "RP-LC retention time": 914},
      {"smiles": "CCCC(=O)N1CCCN(C2=NS(=O)(=O)C(c3ccccc3)=C2C)CC1", "RP-LC retention time": 740},
      {"smiles": "Cn1nc(C(=O)NCC2CCOCC2)c2ccccc21", "RP-LC retention time": 697},
      {"smiles": "Cc1noc(-c2ccc(OC3CN(C(=O)Cc4ccsc4)C3)cc2)n1", "RP-LC retention time": 826},
      {"smiles": "CCCC(=O)Nc1nc(-c2ccc3c(c2)N(C)C(=O)C(C)O3)cs1", "note": "(stereo not drawn)", "RP-LC retention time": 831},
      {"smiles": "CCCCNC(=O)Cc1nnc(-c2ccc(C)cc2)o1", "RP-LC retention time": 755},
      {"smiles": "Cc1sc(-c2cc(C(F)(F)F)[nH]n2)cc1S(=O)(=O)N1CC=C(c2ccccc2)CC1", "RP-LC retention time": 1190},
      {"smiles": "CS(=O)(=O)N1CCCc2cc(C(=O)Nc3ccccc3Br)ccc21", "RP-LC retention time": 927},
      {"smiles": "O=C(O)CCCC(=O)N1C[C@H]2C[C@@H](C1)c1cccc(=O)n1C2", "RP-LC retention time": 564},
      {"smiles": "Cc1ccc(-c2ccc(-n3nc(C)c(S(=O)(=O)Nc4ccc(F)cc4)c3C)nn2)cc1", "RP-LC retention time": 1070},
      {"smiles": "O=C(NCc1ccsc1)NC(c1ccccc1)c1ccccc1", "RP-LC retention time": 863},
      {"smiles": "Cc1ccc(C)c(NC(=O)C2CC(=O)N(c3n[nH]c4cccc(F)c34)C2)c1", "note": "(stereo not drawn)", "RP-LC retention time": 758},
      {"smiles": "Cn1cnnc1CC1CCN(C(=O)Nc2ccccc2)C1", "note": "(stereo not drawn)", "RP-LC retention time": 587},
      {"smiles": "CCOC(=O)c1nc(N(CC)Cc2ccccc2)c2ccccc2n1", "RP-LC retention time": 899},
      {"smiles": "CS(=O)(=O)Nc1ccc(-c2noc(CN3C(=O)COc4ccc(Cl)cc43)n2)cc1", "RP-LC retention time": 879},
      {"smiles": "O=C(Nc1cnc(N2CCCC2)nc1)c1ccc(Cl)cc1", "RP-LC retention time": 765},
      {"smiles": "CCc1nncn1C1CCN(S(=O)(=O)c2ccc(F)c(Cl)c2)CC1", "RP-LC retention time": 734}
    ]}
  ]
}
